In data set [1] the target is T1, GST-hTEAD1 (Homo sapiens, UniProt P28347).
T1 construct: CDNA of hTEAD1(209–426) fused with an N-terminal GST tag; made in house; host or cells: Escherichia coli BL21 DE3 RIL(K+)
Description: SPR binding to immobilised GST-hTEAD1. Conditions: GST-hTEAD1 amine-coupled on CM5, multi-cycle, steady-state fit 1:1 model, 10 mM HEPES 150 mM NaCl 0.05% Tween-20 pH 7.4, 0.3% DMSO, 20 °C, Fig. 1 values n = 1 replicate. The procedure:
(§1) Sensor chips Series S CM5 (Research grade) were obtained from GE Healthcare. Prior to use, the sensor chips were equilibrated at room temperature for 15 min to prevent water condensation on the detector side of the sensor chip surface. A running buffer was prepared composed of 10 mM HEPES, 150 mM NaCl, and 0.05% (w/v) Tween-20, pH 7.4, and the system was equilibrated at 20 °C using a flow rate of 30 µL min^−1 after docking of the sensor chip. Ligand binding experiments have been performed applying the concept of multi-cycle kinetics. A contact time of 45 s was selected, followed by a 6-min dissociation phase to allow for complete dissociation of the analyte prior to the next cycle. […] Typically, seven concentrations of the analytes have been examined applying a threefold dilution pattern with 30 µM as top concentration. For the analysis, five running buffer blanks were injected to equilibrate the instrument. […] The carboxyl-dextran surface was activated for 7 min with 0.05 M NHS and 0.2 M EDC, followed by an injection of the proteins in 10 mM MES pH 6.4 at a concentration of 30–50 µg mL^−1. […] This was followed by a deactivation of the residual esters by injecting a solution of 0.5 M ethanolamine pH 8.0 for 7 min before engaging in ligand binding experiments. Reference surfaces were prepared accordingly, omitting the injection of protein over the activated reference surface.
For orientation: SPR reads the build-up and loss of mass on a sensor chip optically.

For data set [2], the system named is primary juvenile (P5–P6) rat cardiomyocytes. The experiment in a line: Cell cycle activity assay (Ki67/αActinin) in juvenile rat cardiomyocytes. Format: cell-based. The following applies: c = 10 µM, 4 days, relative to DMSO-treated cells (100), mean of N = 6. How it is done: One day after seeding, the cells were treated with test compounds of interest. Treatments were applied with an ECHO 520 acoustic dispenser (Labcyte) and medium was added to the wells. Four days after treatment, the cells were fixed with 4% formaldehyde (Roth) and immunostained in 0.2% Triton-X100 (Roth) in PBS (Gibco) supplemented with 5% FBS. […] Samples were then imaged and analysed on an ImageXpress XL automated microscope (Molecular Devices). Data are depicted as means ± SEM.

Data set [3] deals with rat heart cells. Description: Cell toxicity assessment on rat heart cells in culture. The following applies: c(peptide) = 10 µM. The procedure:
whole heart cells monitored by fluorescence microscopy after 90 minutes treatments (scale bar: 25 µm), number of […]
4E as well as control compounds (SB203580, CHIR99021) on rat heart cells in culture (c(peptide) = 10 µM). Number of independent biological replicates: n = 6, error bars = SEM. […]
cytometry analysis of live cells after 90 min incubation at 5 µM: Representative histogram plot, (-) DMSO control). Source data are provided as a Source Data file.
(1 picture or pasted object on this page, not shown here)

For data set [4], the target named is T2, mTEAD4 (Mus musculus, UniProt Q62296).
T2 construct: Mouse TEAD4(210–427) cDNA fused with a 6x His-tag and a 3C protease cleavage site; 6x His-tag; 3C protease cleavage site; made in house; host or cells: E. coli BL21 DE3 RIL(K+)
Description: SPR binding to immobilised mTEAD4. The following applies: mTEAD4 amine-coupled on CM5, multi-cycle, steady-state fit 1:1 model, 10 mM HEPES 150 mM NaCl 0.05% Tween-20 pH 7.4, 0.3% DMSO, 20 °C, Fig. 1 values n = 1 replicate. How it is done: as §1

Data set [5] concerns the target T2, mTEAD4. The experiment in a line: Competition fluorescence polarization with mTEAD4 (alanine scan). Format: binding. The following applies: Ac-peptide vs FITC-labelled tracer peptide 10 nM, mTEAD4 400 nM, 1 h. The procedure:
Competition FP: N-terminally acetylated peptides were diluted 1:1 in a 384-well plate (5 μL, 75 μM−9 pM). Ten microlitres of a mixture (1:1) of mTEAD4 and FITC-labelled peptide was added (final concentrations: acetylated peptides = 50 μM−6 pM; mTEAD4 protein = 400 nM; FITC-labelled tracer peptide = 10 nM). After 1 h, FP was measured (λ(ex) = […]). IC50 was determined from the binding curve with GraphPad from Prism.
Background: Polarisation of emitted light reports the rotation of a fluorescent probe.

The structures appear in SMILES notation. Bridge positions count the residues as written; N and C are the ends. Square brackets hold non-standard residues; d marks the D form. Peptide text beside a SMILES is read from it. Orn = NCCC[C@H](N)C(=O)O

T2 sequence (Q62296 210-427): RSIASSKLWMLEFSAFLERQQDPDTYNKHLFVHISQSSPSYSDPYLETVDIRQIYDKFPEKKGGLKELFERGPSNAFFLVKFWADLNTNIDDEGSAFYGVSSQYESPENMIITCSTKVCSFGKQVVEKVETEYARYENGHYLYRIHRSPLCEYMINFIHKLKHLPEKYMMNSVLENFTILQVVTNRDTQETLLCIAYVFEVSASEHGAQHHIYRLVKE
T1 sequence (P28347 209-426): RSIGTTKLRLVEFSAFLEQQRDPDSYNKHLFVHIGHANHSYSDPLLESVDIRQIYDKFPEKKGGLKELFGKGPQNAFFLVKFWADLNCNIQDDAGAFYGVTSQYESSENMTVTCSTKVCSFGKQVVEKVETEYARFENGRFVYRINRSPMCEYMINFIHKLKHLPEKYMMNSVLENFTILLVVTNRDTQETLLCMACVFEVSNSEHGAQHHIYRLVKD

As usually defined, the Kd is the equilibrium constant for the complex coming apart. A lower Kd goes with tighter binding. In turn, `CC[C@H](C)[C@@H]1NC(=O)[C@H](CCC(N)=O)NC(=O)[C@H](CC(C)C)NC(=O)[C@H](Cc2c[nH]c3ccccc23)NC(=O)[C@H]([C@@H](C)O)NC(=O)[C@H](CC(=O)O)NC(=O)CNC(=O)[C@H](CC(C)C)NC(=O)[C@H](C)NC(=O)[C@H](CCCCN)NC(=O)[C@H](C)NC(=O)[C@H](Cc2ccccc2)NC(=O)[C@H](Cc2c[nH]cn2)NC(=O)[C@H](CC(=O)O)NC(=O)[C@@H](NC(=O)[C@@H](NC(=O)[C@H](CO)NC(C)=O)C(C)C)CCC(=O)NCCC[C@@H](C(=O)N[C@@H](C)C(=O)N[C@@H](C)C(N)=O)NC1=O` [4D] (Ac-SVEDHFAKALGDTWLQI[Orn]AA-NH2; lactam 3-18) displayed a Kd in data set [1] of 1.5 µM.
Turning to `Cc1c[nH]c(-c2cnc(NCCNc3ccc(C#N)cn3)nc2-c2ccc(Cl)cc2Cl)n1` [CHIR99021, reference compound], the “Cell cycle activity, MEAN” value in data set [2] worked out at 152.398. Further, the “Total cell number (% DMSO control)” value in data set [3] (raw data replicate 1) is 164.318 % DMSO control; in data set [3] (raw data replicate 2) it was 154.314 % DMSO control; in data set [3] (raw data replicate 3) it was 186.382 % DMSO control; in data set [3] (raw data replicate 4), 116.435 % DMSO control; in data set [3] (raw data replicate 5), 128.897 % DMSO control; in data set [3] (raw data replicate 6) it was 164.042 % DMSO control.
Take `C[S+]([O-])c1ccc(-c2nc(-c3ccncc3)c(-c3ccc(F)cc3)[nH]2)cc1` (stereo not shown) [SB203580, reference compound]: the “Cell cycle activity, MEAN” value in data set [2] was 122.95.
As for `CC(=O)N[C@@H](CC(=O)O)C(=O)N1CCC[C@H]1C(=O)N[C@H](C(=O)N[C@H](C(=O)N[C@@H](CCC(=O)O)C(=O)N[C@@H](CCC(=O)O)C(=O)N[C@@H](Cc1c[nH]cn1)C(=O)N[C@@H](Cc1ccccc1)C(=O)N[C@@H](CCCNC(=N)N)C(=O)N[C@@H](CCCNC(=N)N)C(=O)N[C@@H](CO)C(=O)N[C@@H](CC(C)C)C(=O)NCC(=O)N[C@@H](CCCCN)C(=O)N[C@@H](CC(N)=O)C(=O)N[C@@H](Cc1ccc(O)cc1)C(N)=O)C(C)C)C(C)C` [compound 2] (Ac-DPVVEEHFRRSLGKNY-NH2), the dissociation constant (Kd) in data set [4] came to 21.8 µM; in data set [1] it was 19.4 µM.
For `CC[C@H](C)[C@H](NC(=O)[C@H](CO)NC(=O)[C@@H](NC(=O)[C@H](CO)NC(=O)[C@H](CC(N)=O)NC(=O)[C@@H]1CCCN1C(=O)[C@H](C)NC(=O)[C@@H]1CCCN1C(=O)[C@H](CCC(=O)O)NC(=O)[C@@H]1CCCN1C(=O)[C@H](CCC(=O)O)NC(=O)[C@H](CCCCN)NC(C)=O)C(C)C)C(=O)N[C@H](C(=O)NCC(N)=O)[C@@H](C)O` [compound 3] (Ac-KEPEPAPNSVSITG-NH2) the same measures were greater than 100 µM and greater than 100 µM.
For `CC[C@H](C)[C@H](NC(=O)[C@H](CCC(N)=O)NC(=O)[C@H](CC(C)C)NC(=O)[C@H](Cc1c[nH]c2ccccc12)NC(=O)[C@@H](NC(=O)[C@H](CC(=O)O)NC(C)=O)[C@@H](C)O)C(=O)N[C@@H](CCCCN)C(=O)N[C@@H](C)C(=O)N[C@@H](C)C(N)=O` [compound 6] (Ac-DTWLQIKAA-NH2) the same measures were greater than 100 µM and greater than 100 µM.
On the same counts, the results for `CC[C@H](C)[C@H](NC(=O)[C@H](CCC(N)=O)NC(=O)[C@H](CC(C)C)NC(=O)[C@H](Cc1c[nH]c2ccccc12)NC(=O)[C@@H](NC(=O)[C@H](CC(=O)O)NC(=O)CNC(=O)[C@H](CC(C)C)NC(=O)[C@H](C)NC(=O)[C@H](CCCCN)NC(=O)[C@H](C)NC(=O)[C@H](Cc1ccccc1)NC(=O)[C@H](Cc1c[nH]cn1)NC(=O)[C@H](CC(=O)O)NC(=O)[C@H](CC(=O)O)NC(=O)[C@@H](NC(=O)[C@H](CO)NC(C)=O)C(C)C)[C@@H](C)O)C(=O)N[C@@H](C)C(=O)N[C@@H](C)C(=O)N[C@@H](C)C(N)=O` [compound 13] (Ac-SVDDHFAKALGDTWLQIAAA-NH2) are 12 µM and 17 µM.
With `CC[C@H](C)[C@@H]1NC(=O)[C@H](CCC(N)=O)NC(=O)[C@H](CC(C)C)NC(=O)[C@H](Cc2c[nH]c3ccccc23)NC(=O)[C@H]([C@@H](C)O)NC(=O)[C@H](CC(=O)O)NC(=O)CNC(=O)[C@H](CC(C)C)NC(=O)[C@H](C)NC(=O)[C@H](CCCCN)NC(=O)[C@H](C)NC(=O)[C@H](Cc2ccccc2)NC(=O)[C@H](Cc2c[nH]cn2)NC(=O)[C@H](CC(=O)O)NC(=O)[C@@H](NC(=O)[C@@H](NC(=O)[C@H](C)NC(C)=O)C(C)C)CCC(=O)NCCCC[C@@H](C(=O)N[C@@H](C)C(=O)N[C@@H](C)C(N)=O)NC1=O` [compound 14] (Ac-AVEDHFAKALGDTWLQIKAA-NH2; lactam 3-18), in data set [1], the affinity, expressed as Kd, was 1.5 ± 0.02 µM.
Same read-out and setting: then `CC[C@H](C)[C@@H]1NC(=O)[C@H](CCC(N)=O)NC(=O)[C@H](CC(C)C)NC(=O)[C@H](Cc2c[nH]c3ccccc23)NC(=O)[C@H]([C@@H](C)O)NC(=O)[C@H](CC(=O)O)NC(=O)CNC(=O)[C@H](CC(C)C)NC(=O)[C@H](C)NC(=O)[C@H](C)NC(=O)[C@H](C)NC(=O)[C@H](Cc2ccccc2)NC(=O)[C@H](Cc2c[nH]cn2)NC(=O)[C@H](CC(=O)O)NC(=O)[C@@H](NC(=O)[C@@H](NC(=O)[C@H](CO)NC(C)=O)C(C)C)CCC(=O)NCCCC[C@@H](C(=O)N[C@@H](C)C(=O)N[C@@H](C)C(N)=O)NC1=O` [compound 19] (Ac-SVEDHFAAALGDTWLQIKAA-NH2; lactam 3-18), with 1.7 ± 0.01 µM.
The term IC50 denotes the point on the concentration scale where inhibition reaches its midpoint. In data set [4], `CC[C@H](C)[C@@H]1NC(=O)[C@H](CCC(N)=O)NC(=O)[C@H](CC(C)C)NC(=O)[C@H](Cc2c[nH]c3ccccc23)NC(=O)[C@H](C)NC(=O)[C@H](CC(=O)O)NC(=O)CNC(=O)[C@H](CC(C)C)NC(=O)[C@H](C)NC(=O)[C@H](CCCCN)NC(=O)[C@H](C)NC(=O)[C@H](Cc2ccccc2)NC(=O)[C@H](Cc2c[nH]cn2)NC(=O)[C@H](CC(=O)O)NC(=O)[C@@H](NC(=O)[C@@H](NC(=O)[C@H](CO)NC(C)=O)C(C)C)CCC(=O)NCCCC[C@@H](C(=O)N[C@@H](C)C(=O)N[C@@H](C)C(N)=O)NC1=O` [compound 22] (Ac-SVEDHFAKALGDAWLQIKAA-NH2; lactam 3-18) returned a Kd of 113 ± 3.5 µM. For the same molecule, in data set [5], the 50% inhibitory concentration (IC50) was greater than 100 µM.
Turning to `CC[C@H](C)[C@@H]1NC(=O)[C@H](CCC(N)=O)NC(=O)[C@H](C)NC(=O)[C@H](Cc2c[nH]c3ccccc23)NC(=O)[C@H]([C@@H](C)O)NC(=O)[C@H](CC(=O)O)NC(=O)CNC(=O)[C@H](CC(C)C)NC(=O)[C@H](C)NC(=O)[C@H](CCCCN)NC(=O)[C@H](C)NC(=O)[C@H](Cc2ccccc2)NC(=O)[C@H](Cc2c[nH]cn2)NC(=O)[C@H](CC(=O)O)NC(=O)[C@@H](NC(=O)[C@@H](NC(=O)[C@H](CO)NC(C)=O)C(C)C)CCC(=O)NCCCC[C@@H](C(=O)N[C@@H](C)C(=O)N[C@@H](C)C(N)=O)NC1=O` [compound 24] (Ac-SVEDHFAKALGDTWAQIKAA-NH2; lactam 3-18), the Kd in data set [4] came out at 2 ± 0.14 µM.
